Measurements published in patent US5162523A, “Cephalosporin antibacterial compounds” (Hoffmann-La Roche Inc., priority 1990, dated 1992).
Counter-ions that a name gives are not always drawn.

Test: Stability of the product (observation during preparation)
Type: physicochemical
Details: observed during preparation and purification

stability of the product: very unstable
Structure (SMILES): CCn1cc(C(=O)O)c(=O)c2cc(F)c(N3CCN(C=N[C@@H]4C(=O)N5[C@@H]4SC(C)(C)[C@@H]5C(=O)O)CC3)nc21 [Compound H, [2S-(2α,5α,6β)]-7-[4-[[(2-Carboxy-2,3-dimethyl-7-oxo-4-thia-1-azabicyclo[3.2.0]-hept-6-yl)imino]methyl]-1-piperazinyl]-1-ethyl-6-fluoro-1,4-dihydro-4-oxo-1,8-naphthyridine-carboxylic acid disodium salt]
